Activity calls are given as the source filed them. The calls are words filed in the database; no cut-off is given here.
Experiments:
[1] = Half-life was measured in the presence of NADPH at 20 uM; No inhibition; format: ADME
[2] = Half-life was measured in the presence of NADPH at 20 uM; format: ADME
[3] = target: Trypanothione reductase (Trypanosoma cruzi) (UniProt P28593); assay: Tested for inhibition of NADPH-reduced trypanothione reductase (TR)
[4] = target: Trypanothione reductase (Trypanosoma cruzi) (UniProt P28593); assay: Tested for inhibition of NADPH-reduced trypanothione reductase (TR); No inhibition

Sequence of UniProt P28593 (P28593 whole entry, looked up): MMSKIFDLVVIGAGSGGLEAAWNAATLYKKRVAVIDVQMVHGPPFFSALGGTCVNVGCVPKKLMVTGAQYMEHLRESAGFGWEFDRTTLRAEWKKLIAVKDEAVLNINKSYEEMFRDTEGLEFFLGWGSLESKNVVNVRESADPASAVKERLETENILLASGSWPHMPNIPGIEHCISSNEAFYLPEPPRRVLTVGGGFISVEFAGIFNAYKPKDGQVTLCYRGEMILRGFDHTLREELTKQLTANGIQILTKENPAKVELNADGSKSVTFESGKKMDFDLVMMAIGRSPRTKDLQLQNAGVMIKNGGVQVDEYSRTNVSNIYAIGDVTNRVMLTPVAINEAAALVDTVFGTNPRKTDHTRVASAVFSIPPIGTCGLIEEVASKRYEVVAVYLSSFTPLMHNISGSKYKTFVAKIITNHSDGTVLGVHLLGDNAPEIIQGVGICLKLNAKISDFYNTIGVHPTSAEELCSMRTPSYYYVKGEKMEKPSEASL

Substance	T1/2 [2] [min]	K obs [3] [M⁻¹ s⁻¹]	other results
(S-Glutathionato)-(4'-Chloro-2,2':6'2''-terpyridine)platinum (II) Nitrate [listing 1 of 2 here]	–	–	NI [1]: Not Active
(4-Picoline)(2,2':6'2''-terpyridine)platinum (II) Bis (tetrafluoroborate) [listing 1 of 2 here]	11	–	–
(4-Picoline)(2,2':6'2''-terpyridine)platinum (II) Bis (tetrafluoroborate) [listing 2 of 2 here]	–	85	–
(S-Glutathionato)-(4'-Chloro-2,2':6'2''-terpyridine)platinum (II) Nitrate [listing 2 of 2 here]	–	–	NI [4]: inactive

More lines, main results first:

T1/2 [2] [min]	K obs [3] [M⁻¹ s⁻¹]	Substance	other results
–	40	(2-Hydroxyethanethiolato)(2,2':6'2''-terpyridine)platinum (II) Nitrate [listing 1 of 2 here]	–
35	–	(2-Hydroxyethanethiolato)(2,2':6'2''-terpyridine)platinum (II) Nitrate [listing 2 of 2 here]	–

Reference: ChEMBL document CHEMBL1133550, “(2,2':6',2"-Terpyridine)platinum(II) complexes are irreversible inhibitors of Trypanosoma cruzi trypanothione reductase but not of human glutathione reductase” (J Med Chem, 2000)
